This is an account of results in patent US10435361B2, “Kinase inhibitors” (Topivert Pharma Limited, priority 2013, dated 2019).

Structures are written as SMILES. Where two headings read alike, the source gives them in different places.

One data set has as its system d-U937 cells. Description: LPS-induced TNFα/IL-8 release in d-U937 cells. Type of data set: cell-based. The following applies: Homo sapiens, dU937, assay (aa). On the procedure:
U937 cells, a human monocytic cell line, are differentiated to macrophage-type cells by incubation with phorbol myristate acetate (PMA; 100 ng/mL) for 48 to 72 hr. Cells are pre-incubated with final concentrations of test compound for 2 hr and are then stimulated with 0.1 μg/mL of LPS (from E. Coli: 0111:B4, Sigma) for 4 hr. The supernatant is collected for determination of TNFα and IL-8 concentrations by sandwich ELISA (Duo-set, R&D systems). […] The relative 50% effective concentration (REC50) is determined from the resultant concentration-response curve. The inhibition of IL-8 production is calculated at each concentration of test compound by comparison with vehicle control.

Data set [1] can be described thus: Hydrolytic stability study (DMSO/water 3:1, 60° C.). The data set is classed as physicochemical. On the procedure: Chemical stability of compounds of the invention was assessed in a mixture of DMSO and water (3:1) at a test compound concentration of 1 mg/mL
Agilent, Waters X-Select C18, 2.5 μm, 4.6×30 mm column, 4 min method, 5-95%
MeCN/water (0.1% formic acid).
Column Oven Temperature 40° C.
Sample Preparation • A 1.0 mg sample of test compound was dissolved in 750 μL of DMSO. Water (250 μL) was added slowly, ensuring no precipitation occurred.
Recording Stability • A 50 μL aliquot of the test solution was removed and analysed in duplicate by 5 μL HPLC injections. The peak area for the test compound was recorded following manual integration of the corresponding UV trace. • The test solution was heated to 60° C., with stirring, and 50 μL aliquots removed for HPLC analysis at 5 and 24 h timepoints.

For the next data set, the system named is PBMCs. Description: IL-2 and IFN gamma release in CD3/CD28 stimulated PBMC cells. The data set is classed as cell-based. The following applies: Homo sapiens, assay (c). The procedure, abridged: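 Healthy-donor PBMCs, density-gradient isolated, stimulated on plates pre-coated with anti-CD3 (0.3 μg/mL) and anti-CD28 (3 μg/mL) antibodies, with compound, for 3 days under standard culture conditions. IC50 derived from the dose-response curve.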

A further data set deals with Lewis rats. The experiment in a line: Endotoxin-induced uveitis in rats. Type of data set: in vivo. The following applies: rats treated with intravitreal endotoxin LPS. The protocol: Male, Lewis rats (6-8 weeks old, Charles River UK Limited) are housed in cages of 3 at 19-21° C. with a 12 h light/dark cycle (07:00/19:00) and fed a standard diet of rodent chow and water ad libitum. Non-fasted rats are weighed, individually identified on the tail with a permanent marker, and receive a single intravitreal administration into the right vitreous humor (5 μL dose volume) of 100 ng/animal of LPS (Escherichia coli 0111:B4 prepared in PBS, Sigma Aldrich, UK) using a 32-gauge needle. Untreated rats are injected with PBS. Test compound, dexamethasone (Dex) or vehicle (20% hydroxypropyl-β-cyclodextrin, 0.1% HPMC, 0.01% Benzalkonium chloride, 0.05% EDTA, 0.7% NaCl in deionised water) are administered by the topical route onto the right eye (10 μL) of animals 30 minutes prior to LPS, at the time of LPS administration, and 1, 2 and 4 hours post LPS administration. Before administration, the solution or suspension to be administered is agitated for 5 minutes to ensure a uniform suspension. 6 hours after LPS dosing, animals are euthanized by overdose with pentobarbitone (i.v.). Following euthanasia, the right eye of each animal is enucleated and dissected into front (anterior) and back (posterior) sections around the lens. Each section is weighed and homogenised in 500 μL of sterile phosphate buffered saline followed by 20 minutes centrifugation at 12000 rpm at 4° C. The resulting supernatant is divided into 3 aliquots and stored at −80° C. until subsequent cytokine analysis by R&D DuoSet ELISA.

Data set [2] is described as follows: Plasma pharmacokinetics and total colon tissue distribution in mice, single oral administration. The data set is classed as in vivo, C57BL/6 mice. The following applies: male, C57BL/6, mouse, 5 mg/kg, read-out: Median plasma concentration. The protocol:
Studies were conducted by Sai Life Sciences (Hinjewadi, Pune, India) to investigate the plasma pharmacokinetics and total colon tissue distribution of compounds of the invention. In particular, pharmacokinetic studies were carried out in: • male C57BL/6 mice, following a single oral administration; and • male Wistar rats following a single intravenous or oral administration.

A short description of data set [3]: Analysis of metabolites after incubation with hepatocytes. The following applies: rat, Cynomolgus macaque, human hepatocytes. The data set is classed as in vitro ADME. The protocol:
Studies were conducted by BioFocus (Saffron Walden, UK) to determine the metabolic fate of the compound of Example 16 following incubation with rat, Cynomolgus macaque or human hepatocytes.
Separate incubations (n=3) of the compound of Example 16 (10 μM initial concentration) or DMSO control, were performed with cryopreserved hepatocytes from each species (0.5 million cell/mL) at 37° C. for 0, 60 and 90 minutes before termination of reactions and compound extraction with acetonitrile. Sample replicates were pooled prior to analysis.
Potential metabolites were identified using time-of-flight (TOF) and triple quadruple (TQ) mass spectrometers.

Where [4] appears, read: read-out: IC50 Values for Inhibition of Cytokine Release PBMCs IFNγ.
The mark [5] stands for this setting: read-out: IC50 Values for Inhibition of Cytokine Release PBMCs IL-2.

Usually IC50 stands for the concentration that inhibits the measured activity by half.

For `COCCOCCOCCOc1cc(Nc2nccc(Oc3ccc(NC(=O)Nc4cc(C(C)(C)C)cc(NS(C)(=O)=O)c4OC)c4ccccc34)n2)cc(OC)c1` [Example 4, N-(5-(tert-Butyl)-2-methoxy-3-(3-(4-((2-((3-methoxy-5-(2-(2-(2-methoxyethoxy)ethoxy)-ethoxy)phenyl)amino)pyrimidin-4-yl)oxy)naphthalen-1-yl)ureido)phenyl)methanesulfonamide], the IC50 came out at 1 nM in the data set on d-U937 cells (method: relative to 10 μg/mL BIRB796 (REC50), read-out: IC50 Values for Inhibition of Cytokine Release dU937 cells TNFα); 0.8 nM with d-U937 cells (read-out: IC50 Values for Inhibition of Cytokine Release dU937 cells IL-8); 4.2 nM in the data set on PBMCs (setting [4]); 40.5 nM in the data set with PBMCs (setting [5]). The “% Parent Remaining” value in data set [1] (DMSO/water 3:1, 0 min) came out at 100%. In the data set on Lewis rats, the “cytokine levels in the anterior and posterior segments of the eyes” value is “significantly reduced”.
As for `C#Cc1cc(Nc2nccc(Oc3ccc(NC(=O)Nc4cc(C(C)(C)C)cc(NS(C)(=O)=O)c4OC)c4ccccc34)n2)cc(C(=O)NCCOCCOCCOC)c1` [Example 16, 3-((4-((4-(3-(5-(tert-Butyl)-2-methoxy-3-(methylsulfonamido)phenyl)ureido)naphthalen-1-yl)oxy)pyrimidin-2-yl)amino)-5-ethynyl-N-(2-(2-(2-methoxyethoxy)ethoxy)ethyl)benzamide], in data set [2], the concentration at 1 h worked out at 0 ng/mL, the concentration at 2 h was determined as 0 ng/mL, the concentration at 4 h was determined as 0 ng/mL and the concentration at 6 h is 0 ng/mL. Moreover, in data set [2], the concentration at 8 h came out at 0 ng/mL, the concentration at 12 h is 0 ng/mL and the concentration at 24 h was 0 ng/mL. Besides, the “% Parent Remaining” value in data set [1] (DMSO/water 3:1, 0 min) amounted to 100%. Besides, the “% Parent Remaining” value in data set [1] (DMSO/water 3:1, 60° C., 300 min) is recorded as 100%. For the same compound, the “% Parent Remaining” value in data set [1] (DMSO/water 3:1, 60° C., 1440 min) is reported as 100%. Further, the IC50 with PBMCs (setting [4]) amounted to 7.3 nM. In the data set on PBMCs (setting [5]), the IC50 was determined as 74 nM. Also, in data set [3] (10 μM, 0, 60 and 90 minutes), the “number of metabolites formed in hepatocytes” value was 9. Further, the “metabolism at the naphthalene moiety” value in data set [3] (10 μM) is listed as “no products were noted that could be connected to metabolism at the naphthalene moiety”.
For the compound `COc1cc(Nc2cc(Oc3ccc(NC(=O)Nc4cc(C(C)(C)C)cc(NS(C)(=O)=O)c4OC)c4ccccc34)ccn2)cc(C(=O)NCCN2CCOCC2)c1` [Example 27, 3-((4-((4-(3-(5-(tert-Butyl)-2-methoxy-3-(methylsulfonamido)phenyl)ureido)naphthalen-1-yl)oxy)pyridin-2-yl)amino)-5-methoxy-N-(2-morpholinoethyl)benzamide], the “% Parent Remaining” value in data set [1] (DMSO/water 3:1, 0 min) is given as 100%. The IC50 was 11 nM in the data set with PBMCs (setting [4]) and 46.3 nM in the data set on PBMCs (setting [5]). In the data set on Lewis rats, the “cytokine levels in the anterior and posterior segments of the eyes” value is “significantly reduced”.
